Series [1] concerns the target T1, human PGE2 receptor EP4 subtype (hEP4) (Homo sapiens, UniProt P35408).
T1 construct: expressed in transfected cells; host or cells: CHO-K1-Gα16
The series is described as follows: Calcium flux of human prostaglandin E2 receptor EP4 subtype. In kind it is cell-based. The conditions noted are these: CHO-K1-Gα16 cells overexpressing hEP4, calcium flux activated by prostaglandin E2; read-out: hEP4 Ca^2+ IC50. The method, then:
(§1) CHO-K1-Gα16 cells at the logarithmic growth phase were transfected with EP4 overexpressing vector by Lipofectamine 2000 and then seeded in a 96-well plate (Falcon, CA) and cultured at 20000 cells per 100 μL culture medium overnight. On the second day, every single well were added with 100 μL calcium 5 detection reagents (Molecular Devices) and incubated in incubator at 37° C., 5% CO2 for 45 minutes. The compounds were diluted in HBSS detection buffer, then added to 96-well plates. After incubated for 20 min at room temperature away from light, certain concentration of prostaglandin E2 was used to activate calcium flux of cells for detection (Flexstation 3, MD, CA).
(§2) Calculate the IC50 of the compounds of the invention in inhibiting the calcium flux of human PGE2 receptor EP4 subtype (hEP4) and mouse PGE2 receptor EP4 subtype (mEP4) (i.e. the concentration of drugs at which the intracellular Ca^2+ flux is inhibited by half after overexpressing hEP4 and mEP4 receptors in CHO-K1-Gα16 cells). The IC50 of the drugs were calculated using GraphPad Prism 5.
Background: A change in cytosolic calcium serves as a functional read-out for many receptors and channels.

Series [2] concerns the target T2, mouse PGE2 receptor EP4 subtype (mEP4) (Mus musculus, UniProt P32240).
T2 construct: expressed in transfected cells; host or cells: CHO-K1-Gα16
The series is described as follows: Calcium flux of mouse prostaglandin E2 receptor EP4 subtype. It counts as cell-based. To be noted: CHO-K1-Gα16 cells overexpressing mEP4, calcium flux activated by prostaglandin E2; read-out: mEP4 Ca^2+ IC50. The method, then: as §1, §2

Series [3] has as its target T3, human prostaglandin E2 receptor EP1 subtype (Homo sapiens, UniProt P34995).
T3 construct: expressed in transfected cells; host or cells: CHO-K1-Gα16
T3 sequence (P34995 1-402): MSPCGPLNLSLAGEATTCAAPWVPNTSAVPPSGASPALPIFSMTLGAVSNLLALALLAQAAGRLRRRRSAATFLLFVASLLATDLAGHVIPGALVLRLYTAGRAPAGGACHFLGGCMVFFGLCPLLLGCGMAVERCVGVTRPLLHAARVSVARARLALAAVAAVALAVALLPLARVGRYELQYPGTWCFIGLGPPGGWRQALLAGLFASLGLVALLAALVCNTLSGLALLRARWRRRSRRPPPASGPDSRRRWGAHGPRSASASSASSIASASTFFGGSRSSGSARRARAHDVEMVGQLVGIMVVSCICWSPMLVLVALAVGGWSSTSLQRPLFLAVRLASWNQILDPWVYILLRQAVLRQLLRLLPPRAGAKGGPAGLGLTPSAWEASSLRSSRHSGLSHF
The experiment in a line: Calcium flux of human prostaglandin E2 receptor EP1 subtype. It counts as cell-based. To be noted: CHO-K1-Gα16 cells overexpressing human EP1, activated by prostaglandin E2; read-out: hEP1 Ca^2+ IC50. The method, then: (§3) CHO-K1-Gα16 cells at the logarithmic growth phase were transfected with human prostaglandin E2 Receptor subtypes EP1, EP2 or EP3 overexpressing vector by Lipofectamine 2000, then seeded in a 96-well plate (Falcon, CA) at a density of 20000 cells per 100 μL culture medium for overnight culture. On the second day, every single well were added with 100 μL calcium 5 detection reagents (Molecular Devices) and incubated in incubator at 37° C., 5% CO2 for 45 minutes. The compounds were diluted with HBSS detection buffer, then were added to 96-well plates. After 20 min incubation at room temperature in the dark, prostaglandin E2 at certain concentration was used to activate calcium flux of cells for detection (Flexstation 3, MD, CA).
(§4) Calculate the IC50 of the compounds of the invention in inhibiting the calcium flux of human EP1, EP2, and EP3 receptor (i.e. the concentration of drugs at which the intracellular Ca^2+ flux being inhibited by half after overexpressing human EP1, EP2, and EP3 receptors in CHO-K1-Gα16 cells). The IC50 of the drugs were calculated using GraphPad Prism 5.

Series [4] concerns the target T4, human prostaglandin E2 receptor EP2 subtype (Homo sapiens, UniProt P43116).
T4 construct: expressed in transfected cells; host or cells: CHO-K1-Gα16
The experiment in a line: Calcium flux of human prostaglandin E2 receptor EP2 subtype. It counts as cell-based. The conditions noted are these: CHO-K1-Gα16 cells overexpressing human EP2, activated by prostaglandin E2; read-out: hEP2 Ca^2+ IC50. The method, then:
as §3, §4

For series [5], the target named is T5, human prostaglandin E2 receptor EP3 subtype (Homo sapiens, UniProt P43115).
T5 construct: expressed in transfected cells; host or cells: CHO-K1-Gα16
T5 sequence (P43115 1-390): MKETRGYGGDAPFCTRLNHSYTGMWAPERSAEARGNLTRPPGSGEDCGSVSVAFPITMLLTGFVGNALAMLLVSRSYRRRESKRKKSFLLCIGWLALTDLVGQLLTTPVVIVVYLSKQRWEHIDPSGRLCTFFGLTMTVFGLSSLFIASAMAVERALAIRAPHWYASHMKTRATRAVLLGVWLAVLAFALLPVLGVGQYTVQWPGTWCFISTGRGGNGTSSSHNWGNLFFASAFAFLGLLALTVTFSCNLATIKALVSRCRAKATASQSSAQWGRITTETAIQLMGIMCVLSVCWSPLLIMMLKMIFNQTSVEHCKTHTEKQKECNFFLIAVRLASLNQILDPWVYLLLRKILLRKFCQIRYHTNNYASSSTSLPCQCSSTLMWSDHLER
The series is described as follows: Calcium flux of human prostaglandin E2 receptor EP3 subtype. To be noted: CHO-K1-Gα16 cells overexpressing human EP3, activated by prostaglandin E2; read-out: hEP3 Ca^2+ IC50. In kind it is cell-based. The method, then: as §3, §4

Series [6] concerns mouse colon cancer cells CT26. The experiment in a line: CT26 subcutaneous tumor-bearing model, Balb/c mice. It counts as in vivo. The conditions noted are these: female Balb/c mice, 75 mg/kg/day; for Inhibitory effect on growth of subcutaneous CT26 colon cancer: 14 days, vs negative control, FIG. 3. The method, then: 2×10^6 mouse colon cancer cells CT26 were subcutaneously injected into right side of each mouse's back (female Balb/c mouse, 6-8 weeks). The length and width of subcutaneous tumors in the back of mice were measured using vernier calipers, and tumor volume (mm^3)=(length(mm)×width(mm)×width(mm)×n)/6 was calculated. […] The volume of subcutaneous tumors on the back of mice was measured and counted twice a week. Continuous administrated for a period of 14 days and the changes of tumor volumes were recorded.
(§5) Mouse colon cancer cells MC38, pancreatic cancer cells Pan02, breast cancer cells 4T1, prostate cancer cells RM-1 and colon cancer cells CT26 were cultivated to required amount. Then, cells at a cell density of 5×10^5-2×10^6 were subcutaneously injected into right side of the back of selected female C57BL/6 mice aging 6-8 weeks (MC38, Pan02), male C57BL/6 mice aging 6-8 weeks (RM-1), female Balb/c mice aging 6-8 weeks (4T1, CT26) and female Balb/c nude mice aging 6-8 weeks (CT26). The length and width of subcutaneous tumors in the backs of mice were measured using vernier calipers, and tumor volume(mm^3)=(length(mm)×width(mm)×width(mm)×n)/6 was calculated. […] The volume of subcutaneous tumors on the back of mice was measured and counted 2-4 times a week. Continuous administrated for 12-22 days and the changes of tumor volumes were recorded.

Series [7] can be described thus: Cytotoxicity evaluation (CCK8), LLC. The conditions noted are these: mouse, LLC lung cancer cells.
Description: (§6) Cells with a density of 2000-8000 cells per 100 μL medium were seeded in 96-well plates (Falcon, CA) and incubated for 24 hours, then treated with drugs having different concentration gradient (at least 4 replicates per concentration) and incubated at 37° C. in 5% CO2 incubator for 72 hours. Then cell viability was detected by CCK8 method. That is to say, add 10 μL CCK8 to each well and incubate for 0.33-2 h, and the OD values are read by microplate reader at 450 nm. The inhibition rate on cell survival of compounds with each concentration were calculated.
(§7) Inhibition rate on cell survival=(OD value of groups with each concentration/OD
(§8) value of control group)×100%±standard deviation.
(§9) The IC50 of drugs were calculated using GraphPad Prism 5.0.
Series [8] in a line: Cytotoxicity evaluation (CCK8), 293. The conditions noted are these: human.
Series [9] in a line: Cytotoxicity evaluation (CCK8), MOSJ. To be noted: mouse, MOSJ osteosarcoma cells.
Description: as §6, §7, §8, §9
Series [10] can be described thus: Cytotoxicity evaluation (CCK8), CT26. To be noted: mouse, CT26 intestinal cancer cells.
Description: as §6, §7, §8, §9
A short description of series [11]: Cytotoxicity evaluation (CCK8), EMT-6. To be noted: mouse, EMT-6 breast cancer cells.
Description: as §6, §7, §8, §9
Series [12] in a line: Cytotoxicity evaluation (CCK8), PANC02. To be noted: mouse, PANC02 pancreatic cancer cells.
Description: as §6, §7, §8, §9
Series [13] deals with mouse models of colon cancer, breast cancer, pancreatic cancer and sarcoma. To be noted: Oncoimmunology 2017; cited from earlier work.
For series [14], the system named is mouse colon cancer cells MC38. The series is described as follows: MC38 subcutaneous tumor-bearing model, C57BL/6 mice. In kind it is in vivo. The conditions noted are these: female C57BL/6 mice, 75 mg/kg/day, 12-22 days, FIG. 4.
Description: as §5

The test system of series [15] is pancreatic cancer cells Pan02. The experiment in a line: Pan02 subcutaneous tumor-bearing model, C57BL/6 mice. It counts as in vivo, mouse. The conditions noted are these: female C57BL/6 mice, 75 mg/kg/day, 12-22 days, FIG. 4.
Description: as §5

Series [16] has as its system breast cancer cells 4T1. The experiment in a line: 4T1 subcutaneous tumor-bearing model, Balb/c mice. It counts as in vivo, mouse. To be noted: female Balb/c mice, 75 mg/kg/day, 12-22 days, FIG. 4.
Description: as §5

In series [17] the test system is prostate cancer cells RM-1. The experiment in a line: RM-1 subcutaneous tumor-bearing model, C57BL/6 mice. It counts as in vivo, mouse. The conditions noted are these: male C57BL/6 mice, 75 mg/kg/day, 12-22 days, FIG. 4.
Description: as §5

Series [18] concerns colon cancer cells CT26. The series is described as follows: CT26 subcutaneous tumor-bearing model, Balb/c nude mice. It counts as in vivo, mouse. To be noted: female Balb/c nude mice, 75 mg/kg/day.
Description: as §5

T4 sequence (P43116 whole entry): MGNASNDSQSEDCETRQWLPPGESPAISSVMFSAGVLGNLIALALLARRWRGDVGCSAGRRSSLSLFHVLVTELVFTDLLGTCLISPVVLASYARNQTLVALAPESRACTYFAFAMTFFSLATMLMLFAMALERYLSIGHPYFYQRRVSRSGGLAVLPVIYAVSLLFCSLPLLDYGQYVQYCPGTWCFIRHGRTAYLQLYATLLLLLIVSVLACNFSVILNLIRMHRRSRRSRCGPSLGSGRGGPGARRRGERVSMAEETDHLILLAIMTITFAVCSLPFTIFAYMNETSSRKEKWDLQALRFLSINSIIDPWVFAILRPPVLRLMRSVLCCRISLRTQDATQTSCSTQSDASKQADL
T2 sequence (P32240 whole entry): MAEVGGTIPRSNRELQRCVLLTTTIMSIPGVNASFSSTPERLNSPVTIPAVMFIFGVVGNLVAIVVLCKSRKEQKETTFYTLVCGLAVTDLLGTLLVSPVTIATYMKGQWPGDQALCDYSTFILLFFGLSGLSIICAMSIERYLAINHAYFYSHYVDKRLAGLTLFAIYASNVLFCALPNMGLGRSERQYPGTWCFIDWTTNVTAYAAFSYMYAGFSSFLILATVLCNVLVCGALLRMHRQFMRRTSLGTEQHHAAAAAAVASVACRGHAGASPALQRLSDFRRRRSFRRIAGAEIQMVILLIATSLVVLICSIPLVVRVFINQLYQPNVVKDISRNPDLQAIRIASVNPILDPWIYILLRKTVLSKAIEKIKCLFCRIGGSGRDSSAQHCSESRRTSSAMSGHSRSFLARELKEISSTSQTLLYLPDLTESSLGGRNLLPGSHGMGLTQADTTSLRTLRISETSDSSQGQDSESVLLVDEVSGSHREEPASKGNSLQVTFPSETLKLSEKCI
T1 sequence (P35408 whole entry): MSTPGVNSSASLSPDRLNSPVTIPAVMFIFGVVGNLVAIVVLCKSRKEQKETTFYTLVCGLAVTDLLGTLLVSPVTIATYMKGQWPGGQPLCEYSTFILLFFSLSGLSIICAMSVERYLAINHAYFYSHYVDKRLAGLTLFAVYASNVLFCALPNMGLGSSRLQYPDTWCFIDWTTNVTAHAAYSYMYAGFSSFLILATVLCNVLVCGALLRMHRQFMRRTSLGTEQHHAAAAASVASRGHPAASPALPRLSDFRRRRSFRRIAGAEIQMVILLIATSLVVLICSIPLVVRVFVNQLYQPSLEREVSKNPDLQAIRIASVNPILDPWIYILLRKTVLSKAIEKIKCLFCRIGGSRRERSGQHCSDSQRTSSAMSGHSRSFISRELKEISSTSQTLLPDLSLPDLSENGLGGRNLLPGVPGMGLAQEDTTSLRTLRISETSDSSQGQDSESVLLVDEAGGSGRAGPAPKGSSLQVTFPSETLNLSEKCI

A word on the IC50: it is the concentration needed to halve the response being measured. With `C[C@H](NC(=O)c1c(Cc2cccc(C(F)(F)F)c2)sc2c1CCOC2)c1ccc(C(=O)O)cc1` [YJ116, (S)-4-(1-(2-(3-(trifluoromethyl)benzyl)-5,7-dihydro-4H-thieno[2,3-c]pyran-3-carboxamido)ethyl)benzoic Acid], the IC50 in [1] is less than 0.1 µM; in series [2] it was less than 0.1 µM; in series [3] it was more than 10 µM; in series [4], more than 10 µM; in series [5] it was more than 10 µM. The “Inhibitory effect on growth of subcutaneous CT26 colon cancer” value (“Inhibitory effect on growth” for short) in series [6] was “able to suppress the growth”. Also, the IC50 at 72 h in series [7], in series [8], in [9], in series [10], in series [11] and in [12] was more than 100 µM in each case.
As to `C[C@H](NC(=O)c1c(C(F)F)nn(C)c1Oc1cccc(C(F)(F)F)c1)c1ccc(C(=O)O)cc1` [Compound E7046, reference compound], the “Inhibitory effect on growth” value in [6] is “comparable with that of E7046”. Further, the “Inhibitory effects in mouse tumor models” value in series [13] was “good inhibitory effects”.
With `C[C@H](NC(=O)c1c(Cc2ccc(F)cc2)sc2c1CCOC2)c1ccc(C(=O)O)cc1` [YJ114, (S)-4-(1-(2-(4-fluorobenzyl)-5,7-dihydro-4H-thieno[2,3-c]pyran-3-carboxamido)ethyl)benzoic Acid], the IC50 in [3], in series [4] and in series [5] was more than 10 µM in each case. Besides, in series [6] (12 to 22-day administration (Example 6)), the “Inhibition of growth of colon cancer cells CT26 in subcutaneous tumor-bearing mice” value is “can efficiently inhibit the growth”. Moreover, the “Inhibitory effect on growth” value in [6] is recorded as “able to suppress the growth”. In series [14], the “Inhibition of growth of colon cancer cells MC38 in subcutaneous tumor-bearing mice” value is on record as “can efficiently inhibit the growth”. In [15], the “Inhibition of growth of pancreatic cancer cells Pan02 in subcutaneous tumor-bearing mice” value was “can efficiently inhibit the growth”. Moreover, in series [16], the “Inhibition of growth of breast cancer cells 4T1 in subcutaneous tumor-bearing mice” value is “can efficiently inhibit the growth”. For the same compound, the “Inhibition of growth of prostate cancer cells RM-1 in subcutaneous tumor-bearing mice” value in series [17] is recorded as “can efficiently inhibit the growth”. The “Inhibition of CT26 tumor growth in Balb/c nude mice with immune system deficiency” value in series [18] was “can not inhibit the tumor growth”. The IC50 at 72 h in series [7], in series [8], in series [9], in series [10], in [11] and in [12] was more than 100 µM in each case.

(Values after patent publication US20210139497A1, “THIENOCYCLIC COMPOUND AND SYNTHESIS METHOD THEREFOR AND APPLICATION THEREOF” (SHANGHAI YUYAO BIOTECH LTD., priority 2017, published 2021).)
